Source: US6500866B1, “1-(adamantyl)amidines and their use in the treatment of conditions generally associated with abnormalities in glutamatergic transmission” (Vernalis Research Limited, priority 1997, dated 2002)
Where a name gives a salt, the structure may show the parent alone.

Tests used:
[1] = molecular target: PCP site of the NMDA receptor (cortical); test: [3H]-MK-801 binding, PCP site of NMDA receptor, rat cortical membranes; conditions: rat cortex membranes, [3H]-MK-801 5 nM, 10 μM glutamate, 10 μM glycine
From the text: (§1) The NMDA receptor contains several distinct binding domains that can regulate opening of the cationic channel. The phencyclidine (PCP) site of the NMDA receptor can be radiolabeled with [^3H]-(+)-5-methyl-10,11-dihydro-5H-dibenzo[a,d]cyclohepten-5,10-imine hydrogen maleate, [^3H-MK-801]. The following describes the procedure for determining the affinity of compounds for the PCP site in rat cortical or cerebellar membranes.
(§2) Frozen rat cortex or cerebellum, homogenized in 10 volumes of ice cold 0.32 M. sucrose is centrifuged at 1,000 g for 12 min and the supernatant stored on ice whilst the pellet was resuspended, rehomogenized and recentrifuged twice more. The three final supernatants were pooled and centrifuged at 30,000 g for 40 min at 4° C. to yield P2 pellets. These were resuspended in ice-cold distilled water, and centrifuged at 30,000 g for 50 min at 4° C. Following three further washes in distilled water, the P2 pellets were stored at −20° C. for at least 18 h. On the day of the assay, membrane pellets were thawed at room temperature, resuspended in ice-cold distilled water and centrifuged at 30,000 g for 20 min. The pellets were resuspended in 50 mM tris-HCl (pH:7.4) and recentrifuged twice more before being resuspended in tris-HCl for immediate use in the assay. Binding assays were performed at equilibrium in a total volume of 200 μl, containing, [^3H]-MK-801 (5 nM final conc.), 10 μM glutamate, 10 μM glycine, 160 μl of membrane preparation and additional drugs where appropriate. Non-specific binding was determined using MK-801 (10 μM). The assay was incubated for 120 min at room temperature. The incubation was terminated by rapid filtration through Whatman GF/B filters (pre-soaked in 0.1% PEI solution). The assay tubes and filters were washed five times with 1 ml of ice cold assay buffer. The filters were placed in poly-Q mini vials with approximately 5 ml of scintillation fluid. The vials are then shaken and left for at least 8 hours before being counted on a liquid scintillation counter. To determine the free ligand concentration 3 aliquots (20 μl) of the [^3H]-MK-801 working solution were also counted. Concentration response data for drugs was analysed using a 4 parameter equation fitted by non linear regression. This yielded the half maximally effective drug concentration (IC50) and Hill coefficient.

[2] = tested on: PCP site of the NMDA receptor (cerebellar); test: [3H]-MK-801 binding, PCP site of NMDA receptor, rat cerebellar membranes; conditions: IC50 cortex / IC50 cerebellum
From the text: as §1, §2

[3] = molecular target: T1, PCP site of the NMDA receptor (cerebellar); test: as above; conditions: rat cerebellum membranes, [3H]-MK-801 5 nM, 10 μM glutamate, 10 μM glycine
T1 construct: IC50(μM) Cerebellum; other: rat cerebellum membranes, [3H]-MK-801 5 nM, 10 μM glutamate, 10 μM glycine
From the text: as §1, §2

Row | melting point | SMILES | IC50 [1] | Ratio of cortical to cerebellar binding affinity [2] | IC50 [3]
1 | 215 to 216 °C | N=C(N)C12CC3CC(CC(Cl)(C3)C1)C2 (as salt: hydrochloride) [Example 2, 3-Chloro-1-adamantanecarboximidamide hydrochloride] | – | – | –
2 | 221 to 223 °C | N=C(N)C12CC3CC(CC(Br)(C3)C1)C2 (as salt: hydrochloride) [Example 3, 3-Bromo-1-adamantanecarboximidamide hydrochloride] | – | – | –
3 | 210 to 212 °C | CCC12CC3CC(C1)CC(C(=N)N)(C3)C2 (as salt: hydrochloride) [Example 4, 3-Ethyl-1-adamantanecarboximidamide hydrochloride] | – | – | –
4 | 222 to 224 °C | C=CCNC(=N)C12CC3CC(C)(CC(C)(C3)C1)C2 (as salt: hydrochloride) [Example 6, N-Allyl-3,5-dimethyl-1-adamantanecarboximidamide hydrochloride] | – | – | –
5 | 252 to 254 °C | C=CCNC(=N)C12CC3CC(CC(C3)C1)C2 (as salt: hydrochloride) [Example 7, N-Allyl-1-adamantanecarboximidamide hydrochloride] | – | – | –
6 | 315 °C (dec.) | CCNC(=N)C12CC3CC(CC(C3)C1)C2 (as salt: hydrochloride) [Example 8, N-Ethyl-1-adamantanecarboximidainide hydrochloride] | – | – | –
7 | 242 to 244 °C | N=C(NCc1ccccc1)C12CC3CC(CC(C3)C1)C2 (as salt: hydrochloride) [Example 9, N-Benzyl-1-adamantanecarboximidamide hydrochloride] | – | – | –
8 | 293 °C (dec.) | CN(C)CCNC(=N)C12CC3CC(CC(C3)C1)C2 (as salt: hydrochloride) [Example 10, N-(2-Dimethylaminoethyl)-1-adamantanecarboximidamide dihydrochloride] | – | – | –
9 | 246 to 248 °C | CC12CC3CC(C)(C1)CC(CCC(=N)N)(C3)C2 (as salt: hydrochloride) [Example 11, 3-(3,5-Dimethyl-1-adamantyl)propanimidamide hydrochloride] | – | – | –
10 | – | CC12CC3CC(C)(C1)CC(CC(=N)N)(C3)C2 [Example 5, 3,5-Dimethyl-1-adamantaneacetiniidamide hydrochloride] | 82 µM | 1.5 | 56 µM
11 | – | CC12CC3CC(C1)CC(C(=N)N)(C3)C2.Cl [Example 12, 3-Methyl-1-adamantanecarboximidamide hydrochloride] | 96 µM | 2.7 | 36 µM
12 | – | CC12CC3(C)CC(C)(C1)CC(C(=N)N)(C2)C3.Cl [Example 13, 3,5,7-Trimethyl-1-adamantanecarboximidamide hydrochloride] | 43 µM | 2.4 | 18 µM
13 | – | Cl.N=C(N)C12CC3CC(C1)CC(c1ccc([N+](=O)[O-])cc1)(C3)C2 [Example 14, 3-(4-Nitrophenyl)-1-adamantanecarboximidamide hydrochloride] | 406 µM | 1.7 | 234 µM
14 | – | Cl.N=C(N)C(Cc1ccccc1)C12CC3CC(CC(C3)C1)C2 (centres unmarked) [Example 16, 2-(1-Adamantyl)-3-phenylpropanimidamide hydrochloride] | 52 µM | 1.9 | 27 µM
15 | – | N=C(N)CC(c1ccccc1)C12CC3CC(CC(C3)C1)C2 (centres unmarked) [Example 18, 3-(1-Adamantyl)-3-phenylpropanimidamide hydrochloride] | 27 µM | – | –

Row | SMILES | melting point | IC50 [1] | Ratio of cortical to cerebellar binding affinity [2] | IC50 [3]
16 | CC12CC3CC(C)(C1)CC(CC(=N)N)(C3)C2 (as salt: hydrochloride) [Example 5, 3,5-Dimethyl-1-adamantaneacetiniidamide hydrochloride] | 252 to 253 °C | – | – | –
